Reference: patent US20170095504A1, “Inhibitors of Kidney Stone Formation and Calcium Deposition” (priority 2015, published 2017)

Key:
[1] = Effect of inhibitors on crystal morphology (COM/COD/COT); conditions: 100 mg/L; 1 hr after start of reaction; control yields COM
[2] = Calcium binding (free Ca in solution before oxalate addition); assay type: physicochemical; conditions: inhibitor 100 mg/L; ~1.0 mM if no Ca binding occurs; control 1.02 mM
Method: Calcium binding was determined before oxalate addition. Crystals were obtained after the end of the kinetic experiments (1 hour), filtered, dried and tested by FTIR. The major polymorph was reported; other phases may be present but their peaks were not distinguishable in IR. Initial calcium and oxalate concentrations was the same, approximately 1 mM in pH buffered medium containing 10 mM HEPES and 150 mM NaCl. […] The data are Ca recordings obtained from solutions containing the inhibitor (100 mg/L) and calcium. The Ca ion concentration should be ˜1.0 mM if no Ca binding occurs. This could be related to the type of adsorption on the crystals as reported in a later section. Some of our proposed KSIs are showing significant Ca binding activity, and these are likely to be the best candidates as inhibitors.

SMILES: O=C(O)CN(CCN(CC(=O)O)CC(=O)O)CCN(CC(=O)O)CC(=O)O [DTPA, diethylenetriaminepentaacetic acid]
- crystal phase obtained (COM, COD or COT) [1]: COT
- Ca2+ concentration in the presence of inhibitors at 100 mg/L (PPM) [2]: 0.71 mM
